The test system of test [1] is T-lymphoblastic leukemia cell line CEM. The test is described as follows: MTT cytotoxicity assay, CEM. To be noted: Homo sapiens, 72 hours (TCS50 in the method). The format is cell-based, human. An outline of the steps:
(§1)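 Cells pre-incubated 24 h, then exposed to six 4-fold dilutions (top well concentration typically 266.7 μM) in duplicate for 72 h at 37 °C, 5% CO2. MTT read-out, SDS-solubilized formazan measured at 540 nm. TCS50, the concentration lethal to 50% of tumour cells, derived from dose-response curves.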
Background: Tetrazolium assays rely on reduction of a dye to a coloured formazan, in cell work by metabolically active cells.

In another test the test system is B16 melanoma. The test is described as follows: MTT cytotoxicity assay, B16. The format is cell-based, mouse. The note with it: Mus musculus, B16, 72 hours (TCS50 in the method). An outline of the steps: as §1
In another test the test system is normal human lymphocytes. The test is described as follows: concanavalin A induced lymphocyte proliferation, [3H]-TdR incorporation. The note with it: Homo sapiens, Lymphocyte, 72 hours, read-out: ED50 (the source's name). Format: cell-based. An outline of the steps:
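Ficoll-isolated human peripheral blood mononuclear cells, stimulated with concanavalin A, exposed to six 4-fold compound dilutions (top well concentration 266.7 μM) for 72 h at 37 °C. Proliferation read as [3H]-TdR incorporation over 6 h by scintillation counting; ED50 taken from dose-response curves relative to control cpm.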

SMILES strings stand for the structures.

The term IC50 denotes the point on the concentration scale where inhibition reaches its midpoint. A high value points to a need for much substance. Regarding `CCCCCCNc1nc(NC(CO)c2ccccc2)c2ncn(C(C)C)c2n1` (stereo not drawn) [P23, 2-(hexylamino)-6-(1-phenyl-2-hydroxyethylamino)-9-isopropylpurine], the values for the IC50 (in test [1]; with B16 melanoma) were 34 µM and 36.8 µM, respectively. Further, the EC50 in the test with normal human lymphocytes is 56 µM.

(Values after US20030187261A1, “Purine derivatives, process for their preparation and use thereof” (priority 2000, published 2003).)
